Experimental data: the CheMixHub ionic liquid set

Experiment: xn = mol fraction of the nth substance listed
Settings: 101 kPa

CCCCCCCCCCCCCCCC[n+]1ccccc1.O=C([O-])C(O)c1ccccc1 + CC(C)C[C@H](N)C(=O)O + O
electrical conductivity [S/m]
Settings | 303.15 K | 308.15 K | 313.15 K
x1 = 9.1e-07, x2 = 0.001799 | – | 0.0024 | 0.0027
x1 = 1.08e-06, x2 = 0 | – | 0.00083 | 0.0009
x1 = 1.27e-06, x2 = 0.0009002 | – | 0.002 | 0.0022
x1 = 1.98e-06, x2 = 0 | – | 0.0014 | 0.0016
x1 = 2.19e-06, x2 = 0.001799 | – | 0.003 | 0.0033
x1 = 2.54e-06, x2 = 0.0009002 | – | 0.0026 | 0.0029
x1 = 2.88e-06, x2 = 0 | – | 0.002 | 0.0022
x1 = 3.1e-06, x2 = 0.001799 | – | 0.0034 | 0.0038
x1 = 3.44e-06, x2 = 0.0009002 | – | 0.0031 | 0.0034
x1 = 3.96e-06, x2 = 0 | – | 0.0026 | 0.0029
x1 = 4.19e-06, x2 = 0.001799 | – | 0.0039 | 0.0043
x1 = 4.69e-06, x2 = 0 | – | 0.0031 | 0.0035
x1 = 4.71e-06, x2 = 0.0009002 | – | 0.0036 | 0.004
x1 = 5.1e-06, x2 = 0.001799 | – | 0.0044 | 0.0048
x1 = 5.95e-06, x2 = 0 | – | 0.0038 | 0.0042
x1 = 5.98e-06, x2 = 0.0009002 | – | 0.0043 | 0.0047
x1 = 6.74e-06, x2 = 0.001799 | – | 0.0051 | 0.0056
x1 = 7.21e-06, x2 = 0 | – | 0.0046 | 0.0051
x1 = 7.43e-06, x2 = 0.0009002 | – | 0.0049 | 0.0054
x1 = 8.2e-06, x2 = 0.001799 | – | 0.0057 | 0.0064
x1 = 8.7e-06, x2 = 0.0009002 | 0.00497 | 0.0055 | 0.0061
x1 = 8.83e-06, x2 = 0 | 0.005 | 0.0055 | 0.006
x1 = 9.84e-06, x2 = 0.001799 | 0.00572 | 0.0064 | 0.0071
x1 = 1.045e-05, x2 = 0 | 0.0058 | 0.0065 | 0.0071
x1 = 1.051e-05, x2 = 0.0009002 | 0.0056 | 0.0062 | 0.0069
x1 = 1.13e-05, x2 = 0.001799 | 0.00618 | 0.0069 | 0.0077
x1 = 1.196e-05, x2 = 0.0009002 | 0.006 | 0.0067 | 0.0075
x1 = 1.207e-05, x2 = 0 | 0.0064 | 0.0071 | 0.0079
x1 = 1.294e-05, x2 = 0.001799 | 0.00661 | 0.0074 | 0.0082
x1 = 1.323e-05, x2 = 0.0009002 | 0.0064 | 0.0071 | 0.0079
x1 = 1.351e-05, x2 = 0 | 0.007 | 0.0077 | 0.0085
x1 = 1.44e-05, x2 = 0.001799 | 0.00704 | 0.0079 | 0.0088
x1 = 1.468e-05, x2 = 0.0009002 | 0.0068 | 0.0076 | 0.0084
x1 = 1.478e-05, x2 = 0 | 0.0075 | 0.0083 | 0.0092
x1 = 1.585e-05, x2 = 0.001799 | 0.00743 | 0.0083 | 0.0092
x1 = 1.595e-05, x2 = 0.0009002 | 0.0072 | 0.008 | 0.0089
x1 = 1.622e-05, x2 = 0 | 0.008 | 0.0089 | 0.0098
x1 = 1.722e-05, x2 = 0.0009002 | 0.0075 | 0.0084 | 0.0093
x1 = 1.731e-05, x2 = 0.001799 | 0.00783 | 0.0087 | 0.0097
x1 = 1.766e-05, x2 = 0 | 0.0085 | 0.0094 | 0.0104
